For one test, the system named is Rat liver COMT. Kind of test: Inhibition of rat liver COMT activity after oral administration. The note with it: 10 mg/kg oral, percentage of Control sample (100%); for Liver (COMT activity %) 1 hour: 1 hour after administration; for Liver (COMT activity %) 5 hours: 5 hours after administration.
The subject of a further test is Rat brain COMT. Kind of test: Inhibition of rat brain COMT activity after oral administration. The note with it: 10 mg/kg oral, percentage of Control sample (100%); for Brain (COMT activity %) 1 hour: 1 hour after administration; for Brain (COMT activity %) 5 hours: 5 hours after administration.
Test [1] concerns unilateral 6-hydroxydopamine-lesioned hemi-parkinsonian rats. The experiment in a line: Potentiation of the efficacy of L-dopa in unilateral 6-hydroxydopamine-lesioned hemi-parkinsonian rats (turning behavior). It is filed as in vivo, rat. The settings on record: 10 mg/kg oral with 5 mg/kg L-dopa and 30 mg/kg carbidopa; for Duration: duration of contralateral rotation response; for Total counts: summed contralateral rotation counts during drug action.

The next test concerns the target T1, recombinant human COMT (Homo sapiens, UniProt P21964).
T1 construct: GST (N, cleaved yes); made in house; host or cells: E. coli BL21 (DE3) Codon Plus RP, pGEX-2T vector
T1 sequence (P21964 with tags, fused parts or gaps): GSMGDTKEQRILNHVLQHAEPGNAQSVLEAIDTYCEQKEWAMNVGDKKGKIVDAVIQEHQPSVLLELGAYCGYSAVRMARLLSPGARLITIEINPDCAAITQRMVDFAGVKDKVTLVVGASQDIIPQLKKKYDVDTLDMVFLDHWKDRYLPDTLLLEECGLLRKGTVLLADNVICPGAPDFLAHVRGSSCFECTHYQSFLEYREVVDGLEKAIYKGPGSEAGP
Kind of test: Human COMT inhibitory potency. It is filed as biochemical. The note with it: catechol substrate, [3H]-S-adenosyl-L-methionine, 37° C. 30 minutes.

In test [2] the test system is rat cryopreserved hepatocytes. Kind of test: Rat hepatocyte toxicities (cell viability, ATP activity). It is filed as cell-based. The settings on record: concentration that shows 50% of the number of viable cells of control, 4 hours at 37° C.

From patent US8258162B2, “Catechol derivative, pharmaceutical composition containing the same, use of the catechol derivative, and use of the pharmaceutical composition” (Kissei Pharmaceutical Co., Ltd., priority 2008, dated 2012) come the findings set out here.

The structures appear in SMILES notation.

As for `CCOC(=O)c1cc(O)c(O)c([N+](=O)[O-])c1C(=O)c1ccccc1` [Compound 1-1, Ethyl 2-benzoyl-4,5-dihydroxy-3-nitrobenzoate], in the test with Rat liver COMT, the “Liver (COMT activity %) 1 hour” value is given as 0.6% and the “Liver (COMT activity %) 5 hours” value is given as 9.0%. In the test with Rat brain COMT, the “Brain (COMT activity %) 1 hour” value came to 8.9% and the “Brain (COMT activity %) 5 hours” value is listed as 56.2%. In test [1], the Duration worked out at 522.5 min and the Total counts is recorded as 3188.3. For the same molecule, at recombinant human COMT, the IC50 – broadly, the concentration needed to halve the response being measured – stood at 7.8 nM. The EC50 (in general, the concentration that produces a half-maximal response) in test [2] amounted to 262000 nM.
As for `COC(=O)c1cc(O)c(O)c([N+](=O)[O-])c1C(=O)c1ccccc1` [Compound 1-2], in test [1], the Duration came out at 452.9 min and the Total counts is 3569.0. Further, the IC50 at recombinant human COMT was found to be 8.9 nM. Further, the EC50 in test [2] is more than 300000 nM.
As for `CC(=O)c1ccc(C(=O)c2c(C(=O)OC(C)C)cc(O)c(O)c2[N+](=O)[O-])cc1` [Compound 1-7], the IC50 on recombinant human COMT stood at 4 nM.
The same measure, in the same setting: the value for `COC(=O)c1ccc(C(=O)c2c(C(=O)OC(C)C)cc(O)c(O)c2[N+](=O)[O-])cc1` [Compound 1-8] was 8.3 nM; that for `CC(C)OC(=O)c1cc(O)c(O)c([N+](=O)[O-])c1C(=O)c1ccccc1C#N` [Compound 1-9] was 7 nM.
In the case of `CCOC(=O)c1cc(O)c(O)c([N+](=O)[O-])c1C(=O)c1cccs1` [Compound 1-13], in the test with Rat liver COMT, the “Liver (COMT activity %) 1 hour” value stood at 6.6% and the “Liver (COMT activity %) 5 hours” value was determined as 15.3%. Besides, in the test on Rat brain COMT, the “Brain (COMT activity %) 1 hour” value is listed as 14.8% and the “Brain (COMT activity %) 5 hours” value was found to be 61.0%. Also, in test [1], the Duration came to 461.4 min and the Total counts stood at 3395.7. Besides, the IC50 at recombinant human COMT was 8.4 nM. In test [2], this molecule returned an EC50 of more than 300000 nM.
As for `CCOC(=O)c1cc(O)c(O)c([N+](=O)[O-])c1C(=O)c1ccno1` [Compound 1-15], the IC50 at recombinant human COMT worked out at 7.1 nM.
On the same count and under the same terms, as for `CCOC(=O)c1cc(O)c(O)c([N+](=O)[O-])c1C(=O)c1nccs1` [Compound 1-18], the figure is 4.7 nM.
For the molecule `COC(=O)c1cc(O)c(O)c([N+](=O)[O-])c1C(C)=O` [Compound 1-20], the IC50 at recombinant human COMT was 9.5 nM. In test [2], this molecule returned a half-maximal effective concentration (EC50) of more than 300000 nM.
For `CCOC(=O)c1cc(O)c(O)c([N+](=O)[O-])c1C(=O)C(F)(F)F` [Compound 1-23], at recombinant human COMT, the IC50 is 8.1 nM.
For the molecule `Cc1ccc(C(=O)c2c(C#N)cc(O)c(O)c2[N+](=O)[O-])cc1` [Compound 1-27], the IC50 on recombinant human COMT came to 9.7 nM. In test [2], this molecule displayed an EC50 of more than 300000 nM.
In the case of `N#Cc1cc(O)c(O)c([N+](=O)[O-])c1C(=O)c1ccccc1F` [Compound 1-29, 2-(2-fluorobenzoyl)-4,5-dihydroxy-3-nitrobenzonitrile], at recombinant human COMT, the IC50 is 6.8 nM.
With `N#Cc1cc(O)c(O)c([N+](=O)[O-])c1C(=O)C1CCCCC1` [Compound 1-34], in the test with Rat liver COMT, the “Liver (COMT activity %) 1 hour” value is given as 0.0% and the “Liver (COMT activity %) 5 hours” value turned out to be 1.0%. In the test with Rat brain COMT, the “Brain (COMT activity %) 1 hour” value is 62.2% and the “Brain (COMT activity %) 5 hours” value turned out to be 78.7%. Also, the IC50 at recombinant human COMT was 8.1 nM. Besides, the EC50 in test [2] is more than 300000 nM.
Take `N#Cc1cc(O)c(O)c([N+](=O)[O-])c1C(=O)c1ccno1` [Compound 1-37]: the IC50 on recombinant human COMT was 8.6 nM.
In the case of `Cc1cc(C(=O)c2c(C#N)cc(O)c(O)c2[N+](=O)[O-])no1` [Compound 1-38], the IC50 on recombinant human COMT was 8.6 nM. This molecule returned an EC50 in test [2] of more than 300000 nM.
As to `N#Cc1cc(O)c(O)c([N+](=O)[O-])c1C(=O)N1CCCCC1` [Compound 1-43], the EC50 in test [2] was more than 300000 nM.
For `Cc1ccc(C(=O)c2cc(O)c(O)c([N+](=O)[O-])c2)cc1` [Tolcapone, 3,4-dihydroxy-4′-methyl-5-nitro-benzophenone, reference compound], in the test on Rat liver COMT, the “Liver (COMT activity %) 1 hour” value is given as 2.5% and the “Liver (COMT activity %) 5 hours” value amounted to 30.0%. In test [1], the Duration came out at 430.0 min and the Total counts stood at 2578.7.
On to `O=C(c1ccccc1)c1ccc(O)c(O)c1[N+](=O)[O-]` [compound 1, (3,4-dihydroxy-2-nitrophenyl)phenymethanone, reference compound], for which, on recombinant human COMT, the IC50 was determined as 40.4 nM.
For the molecule `O=C(c1ccccc1)c1cc(O)c(O)c([N+](=O)[O-])c1C(=O)c1ccccc1` [compound 2, (6-benzoyl-3,4-dihydroxy-2-nitrophenyl)phenylmethanone, reference compound], at recombinant human COMT, the IC50 turned out to be 54 nM.
Still for that read-out and setting: the value for `CCOC(=O)Oc1cc(C(=O)c2ccccc2)c(C(=O)c2ccccc2)c([N+](=O)[O-])c1OC(=O)OCC` [compound 3, carbonic acid 4,5-dibenzoyl-2-ethoxycarbonyloxy-3-nitro-phenyl ester ethy ester, reference compound] was 1180 nM.
